Consider two molecules from paper PMC8018465, “Antimicrobial activities of a small molecule compound II-6s against oral streptococci” (Journal of Oral Microbiology, 2021).

In brackets after ≈: the same amount, converted by molar mass. Where two headings read alike, the source gives them in different places.

Test [1] has as its system S. mutans/S. gordonii/S. sanguinis 3-species biofilms. Briefly: 3-species biofilm imaging (EPS, dead/live, FISH) and quantitative PCR. The test is classed as cell-based. As to the method:
To form 3-species biofilms, bacterial suspensions were mixed to obtain an inoculum consisting of S. mutans, S. gordonii, and S. sanguinis (1 × 10^5 CFU/ml for each strain, inoculum ratio = 1:1:1) in BHIS broth as described previously. The inoculum (250 μl) was added into the chemotaxis chamber (μ-slide 8well, 80,826; Ibidi) and incubated for 24 h. After the multispecies biofilms were formed, they were treated with different concentrations of II-6s, CHX and PBS for 5 days (5 min, three times per day).
For EPS staining, 2.5 μM Alexa Fluor 647-labeled dextran conjugate (Molecular Probes) was added to the culture medium from the beginning of the biofilm formation, and the bacteria were stained with 2.5 μM SYTO 9 (Molecular Probes, Invitrogen) for 15 min after biofilms formed. The biofilms were imaged with a DMIRE2 confocal laser scanning microscope (Leica, Wetzlar, Germany) equipped with a 60 × oil immersion lens.
For dead/live imaging, multispecies biofilms were stained with the Live/Dead BacLight Bacterial Viability Kit (Molecular Probes, Invitrogen), and the reagents were applied to the biofilms at final concentrations of 2.5 μM SYTO 9 and 2.5 μM propidium iodide for 15 min. Live/Dead staining is a measure of membrane damage since SYTO 9 penetrates intact cytoplasmic membranes, while propidium iodide is only able to penetrate damaged membranes. The dyed biofilms were imaged with a Leica DMIRE2 confocal laser scanning microscope as in EPS staining.
For fluorescent in situ hybridization imaging, biofilms were fixed in 4% paraformaldehyde overnight and investigated by species-specific probes (Table S1) as described previously [[30–32]]. In brief, prehybridization (15 min, 46°C) was performed in 250 μl hybridization buffer with 20% formamide in the absence of any oligonucleotide probes. The incubation time for the hybridization was almost 90 min at 46°C in the dark. After the incubation, biofilms were transferred into washing buffer preheated to 48°C and incubated for 15 min at this temperature. After staining, the biofilms were imaged with a Leica DMIRE2 confocal laser scanning microscope as in EPS staining.
Each biofilm was scanned at five randomly selected positions and the experiments were performed in triplicates on three independent occasions. All three-dimensional reconstructions of the biofilms were processed with Imaris, version 7.2.3 (Bitplane, Zürich, Switzerland), and the quantification of fluorescence levels was performed with ImageJ (with the plugin COMSTAT) (National Institutes of Health, Bethesda, MD).
Total DNA of biofilms was isolated and purified using a TIANamp Bacteria DNA kit (Tiangen, Beijing, China). The bacteria were lysed using enzymatic lysis buffer (20 mM Tris-HCl, pH 8.0, 2 mM sodium EDTA, and 1.2% Triton X-100) containing 25 mg/ml of lysozyme at 37°C for 1.5 h. The purity and concentration of DNA were determined by a NanoDrop 2000 spectrophotometer (Thermo Scientific, Waltham, MA, USA). The extracts were placed at −20°C before use. TaqMan real-time PCR (Life Technologies, Carlsbad, CA, USA) was applied to quantify the absolute number of S. mutans, S. gordonii and S. sanguinis as described by the manufacturer (TaKaRa, Dalian, China). The sequences of primers (Table S2) were in accordance with previous studies. The standard curves of these bacteria were plotted using cycle values of DNA, which stands for corresponding concentrations of bacteria from 1 × 10^8 CFU/ml to 1 × 10^4 CFU/ml (Figure S1). The number of each strain within 3-species biofilms was calculated based on standard curves. The experiment was conducted in triplicates and repeated three times.

The subject of test [2] is S. mutans. Kind of test: Bacterial susceptibility assay (microdilution, planktonic). It counts as cell-based, Streptococcus mutans UA159. To be noted: Streptococcus mutans. As for the experimental part: (§1) Streptococcus mutans UA159, Streptococcus gordonii DL1 and Streptococcus sanguinis ATCC10556 were obtained from the State Key Laboratory of Oral Diseases (Sichuan University, Chengdu, China). All strains were routinely cultured in brain heart infusion broth (BHI; Difco, Sparks, MD) under anaerobic conditions (5% CO2) at 37°C. For biofilm formation, bacteria were cultured in BHI broth supplied with 1% sucrose (designated BHIS).
(§2) The minimum inhibitory concentration (MIC) and minimum bactericidal concentration (MBC) of II-6s against S. mutans, S. gordonii, and S. sanguinis were measured by a microdilution method in BHI as described previously. The bacterial inoculum for the experiment was adjusted to 1 × 10^7 colony-forming units (CFU)/ml for S. mutans, S. gordonii, and S. sanguinis based on the optical density at 600 nm (OD600) versus a CFU/ml graph of each bacterium. Bacterial suspension was added to 96-well microtiter plates which were supplemented with serially diluted concentrations of II-6s ranging from 0.98 to 500 μg/ml. Each plate also included CHX ranging from 0.98 to 500 μg/ml as a positive control, test bacteria and BHI broth as a negative control, BHI broth containing equivalent DMSO (0.5% to 0.001%, ν/ν) as a solvent control and a blank control. […] The lowest concentration of the test solutions that allowed no visible growth on a BHI agar plate was taken as MBC. The experiment was performed in triplicates and repeated at least three times.

Test [3] relates to S. gordonii. The test is described as above. The test is classed as cell-based, Streptococcus gordonii DL1. To be noted: Streptococcus gordonii. As for the experimental part:
as §1, §2

Test [4] deals with S. mutans. Kind of test: Bacterial drug resistance assay (MIC after repeated passages). The test is classed as cell-based, Streptococcus mutans UA159. Conditions: for change of MIC / induction of drug resistance after repeated exposure: 15 passages. As for the experimental part: To examine whether S. mutans could develop drug resistance against II-6s, MIC measurements after repeated successive passages were performed to analyze the antimicrobial resistance, following a previous method. The MIC values of II-6s against S. mutans were tested as described above. After the initial MIC was determined, 20 µl of bacterial suspension in a well showing 1/2 MIC was mixed with 1,980 µl of BHI medium to eliminate the influence of residual drug. A volume of 50 µl of the resultant bacterial suspension was then inoculated onto a BHI agar plate followed by incubation at 37°C for 48 h. The colonies grown on the agar plate were again suspended in BHI broth. The overnight bacterial suspensions were diluted to a concentration of 1 × 10^7 CFU/ml for the next MIC test. The same procedure was repeatedly performed for 15 passages. An increase of four-fold or higher in MIC over the initial MIC was considered to be the standard for inducing resistance to an antibacterial agent. The assay was done in triplicates and repeated three times.

[5] abbreviates: 5 days, 5 min three times per day.
Where [6] appears, read: S. mutans, planktonic, BHI medium.
Setting [7] is: S. gordonii, planktonic, BHI medium.

As to `CC(C)(Cc1ccc2ccccc2c1)NC[C@H](O)CNc1cc(C(F)(F)F)cc(C(F)(F)F)c1` [II-6s, (S)-1-((3,5-bis(trifluoromethyl)phenyl)amino)-3-((2-methyl-1-(naphthalen-2-yl)propan-2-yl)amino)propan-2-ol], the “EPS/bacteria ratio of the biofilms” value in test [1] (setting [5]) is listed as “neither II-6s nor CHX treatment altered the EPS/bacteria ratio”. In test [1] (setting [5]), the “microbial composition within 3-species biofilms (FISH, quantitative PCR)” value is listed as “effectively reduced the total biomass of streptococci but did not specifically reduce the cariogenic S. mutans”. Moreover, the “dead/live bacteria ratio of biofilm” value in test [1] (II-6s 125 μg/ml, vs 0.2% of CHX) is on record as “even higher than that treated with 0.2% of CHX”. In test [1] (II-6s 31.25 to 125 μg/ml, vs non-treated control), the “dead/live bacteria ratio of biofilms” value is reported as “significantly higher than that of the non-treated control”. Further, the “reduction of bacterial biomass and EPS production” value in test [1] (II-6s 31.25 to 125 μg/ml, 5 days, 5 min three times per day) is “equivalent ability to reduce bacterial biomass and EPS production as compared to 0.2% of CHX”. For the same molecule, the MIC in test [2] stood at 3.91 µg/mL (≈ 8.07 µM); in test [3] it was 3.91 µg/mL (≈ 8.07 µM); in test [4] (Streptococcus mutans, read-out: MIC against S. mutans during passaging) it was 3.91 µg/mL (≈ 8.07 µM). The minimum bactericidal concentration (MBC) in test [2] (setting [6]) and in test [3] (setting [7]) was 15.6 µg/mL (≈ 32.3 µM) each time. For the same molecule, the “change of MIC / induction of drug resistance after repeated exposure” value in test [4] was “did not induce drug resistance”.
Consider `[H]/N=C(\N/C(=N/[H])NCCCCCCNC(=N)NC(=N)Nc1ccc(Cl)cc1)Nc1ccc(Cl)cc1` [CHX, Chlorhexidine digluconate, reference compound], for which the “EPS/bacteria ratio of the biofilms” value in test [1] (setting [5]) was “neither II-6s nor CHX treatment altered the EPS/bacteria ratio”. The MBC in test [2] (setting [6]) and in test [3] (setting [7]) was 7.81 µg/mL in each case. Further, the MIC in test [2] (S. mutans, planktonic, BHI medium, read-out: MIC) stood at 1.95 µg/mL; in test [3] (S. gordonii, planktonic, BHI medium, read-out: MIC), 3.91 µg/mL. The “change of MIC / induction of drug resistance after repeated exposure” value in test [4] is “increased by four times at the 15th passage”.
